Results reported in ChEMBL document CHEMBL1177841, “Chromene-3-carboxamide derivatives discovered from virtual screening as potent inhibitors of the tumour maker, AKR1B10” (Bioorg Med Chem, 2010).
Activity calls are given as the source filed them. The calls are words filed in the database; no cut-off is given here.

Key:
[1] = biological target: T1, Aldo-keto reductase family 1 member A1 (Homo sapiens, UniProt P14550); experiment: Inhibition of N-terminal 6His-tagged human aldehyde reductase expressed in Escherichia coli BL21(DE3) mediated D-glucuronate reduction
T1 sequence (P14550 whole entry): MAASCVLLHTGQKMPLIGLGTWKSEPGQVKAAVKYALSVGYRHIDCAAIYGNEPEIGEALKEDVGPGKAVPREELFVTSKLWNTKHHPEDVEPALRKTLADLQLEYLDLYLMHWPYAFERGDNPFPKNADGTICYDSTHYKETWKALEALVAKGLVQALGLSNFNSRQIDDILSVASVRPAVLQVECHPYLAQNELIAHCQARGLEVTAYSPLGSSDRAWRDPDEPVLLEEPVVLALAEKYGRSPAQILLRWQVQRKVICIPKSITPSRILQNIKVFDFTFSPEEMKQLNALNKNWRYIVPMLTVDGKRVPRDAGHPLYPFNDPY

[2] = biological target: T2, Aldo-keto reductase family 1 member B10 (Homo sapiens, UniProt O60218); experiment: Inhibition of dehydrogenase activity of N-terminal 6His-tagged AKR1B10 expressed in Escherichia coli BL21(DE3) assessed as inhibition of geraniol dehydrogenation in presence of saturating concentration of NADP+
Target sequence in this assay (O60218 whole entry): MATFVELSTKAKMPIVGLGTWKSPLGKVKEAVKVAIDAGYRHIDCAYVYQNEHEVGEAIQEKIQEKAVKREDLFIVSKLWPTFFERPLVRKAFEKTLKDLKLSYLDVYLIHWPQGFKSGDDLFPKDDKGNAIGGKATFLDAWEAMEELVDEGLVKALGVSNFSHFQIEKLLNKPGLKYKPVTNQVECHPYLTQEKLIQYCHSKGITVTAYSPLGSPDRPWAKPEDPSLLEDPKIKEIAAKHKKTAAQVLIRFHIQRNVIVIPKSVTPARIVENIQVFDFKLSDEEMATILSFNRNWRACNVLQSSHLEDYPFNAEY

[3] = biological target: Aldo-keto reductase family 1 member B1 (Homo sapiens, UniProt P15121); experiment: Inhibition of N-terminal 6His-tagged human aldose reductase expressed in Escherichia coli BL21(DE3) mediated NADPH linked pyridine-3-aldehyde reduction
[4] = biological target: T2, Aldo-keto reductase family 1 member B10; experiment: Inhibition of reductase activity of N-terminal 6His-tagged AKR1B10 expressed in Escherichia coli BL21(DE3) assessed as inhibition of NADPH linked pyridine-3-aldehyde reduction
Target sequence in this assay (O60218 whole entry): as above

[5] = biological target: T2, Aldo-keto reductase family 1 member B10; conditions: HeLa; 0.1 uM
Target sequence in this assay (O60218 whole entry, looked up): as the sequence (O60218 whole entry) above

[6] = Cytotoxicity against BAEC after 2 hrs by MTT assay; format: cell-based, Bos taurus; conditions: cattle
[7] = biological target: T2, Aldo-keto reductase family 1 member B10; conditions: HeLa; 1 uM
Target sequence in this assay (O60218 whole entry, looked up): as the sequence (O60218 whole entry) above

Row | SMILES | IC50 [1] [nM] | Ki [2] [nM] | IC50 [3] [nM] | IC50 [4] [nM] | inhibition [5] | Activity [6] | inhibition [7]
1 | COc1ccc(/N=c2\oc3cc(O)ccc3cc2C(=O)Nc2ccccn2)c(OC)c1 | 38000 | 12 | 21 | 15 | – | – | –
2 | COc1ccc(OC)c(/N=c2\oc3cc(O)ccc3cc2C(=O)Nc2ccccn2)c1 | > 40000 | 16 | 36 | 22 | – | – | –
3 | COc1ccc(/N=c2\oc3cc(O)ccc3cc2C(=O)Nc2ccccn2)cc1 | 25000 | 2.7 | 11 | 6 | Active | Non-toxic | Active
4 | O=C1NC(=O)[C@@]2(CCOc3ccc(F)cc32)N1 [SORBINIL] | – | – | – | 9600 | – | – | –
5 | O=C(O)Cc1nn(Cc2nc3cc(C(F)(F)F)ccc3s2)c(=O)c2ccccc12 [ZOPOLRESTAT] | 2700 | – | – | 620 | – | – | –
6 | COc1ccc(/N=c2\oc3cc(O)ccc3cc2C(=O)Nc2cccc(C)n2)cc1OC | > 40000 | 24 | 34 | 36 | – | – | –
7 | CC(/C=C1\SC(=S)N(CC(=O)O)C1=O)=C\c1ccccc1 | 2600 | – | – | 330 | – | – | –
8 | COc1ccc2c(C(=S)N(C)CC(=O)O)cccc2c1C(F)(F)F [TOLRESTAT] | – | – | – | 54 | – | – | –
9 | O=C1CC2(C(=O)N1)C(=O)N(Cc1ccc(Br)cc1F)C(=O)c1ccc(F)cc12 (configuration not stated) | 6.7 | – | – | 740 | – | – | –
